Laboratory results taken from patent US5747447A, “Stable polypeptide composition” (COR Therapeutics, priority 1995, dated 1998).
*1 amine or outer side, *2 acyl side, *3 side chain or, on linkers, in order; H or OH if unused. Where a SMILES comes first, the peptide text is derived from it. Bridges are numbered along the chain shown (N, C = ends). [ ]: non-standard residue; d: D form. The star is where a group is joined. Phe(4-NO2) = N[C@@H](Cc1ccc([N+](=O)[O-])cc1)C(=O)O; X1 = N=C(NCCCC[C@H](N[*:1])C(=O)[*:2])c1ccccc1; X2 = CC(=N)NCCCC[C@H](N[*:1])C(=O)[*:2]; NMeR = CN[C@@H](CCCNC(=N)N)C(=O)O; NMeF = CN[C@@H](Cc1ccccc1)C(=O)O; hArg = N=C(N)NCCCC[C@H](N)C(=O)O; dPen = CC(C)(S)[C@@H](N)C(=O)O; Pen = CC(C)(S)[C@H](N)C(=O)O; Pip = O=C(O)[C@@H]1CCCCN1; Orn = NCCC[C@H](N)C(=O)O; Thz = O=C(O)[C@@H]1CSCN1; Aib = CC(C)(N)C(=O)O; βAla = NCCC(=O)O; Mpa = O=C(O)CCS; Sar = CNCC(=O)O; For = O=C*

Biological target: ADP-induced human platelet aggregation (Homo sapiens, UniProt P05106+P08514)
Test: standard aggregation inhibition assay (ADP-induced human platelet aggregation)
Assay type: cell-based
Conditions: ADP-induced human platelet aggregation; read-out: Appr, IC50
Description: 2. Standard assays directly applied to platelet aggregation, such as those described by Gann, Z.-R., et al., J Biol Chem (1988) 263:19827-19832; Huang, T. F., et al., J Biol Chem (1987) 262:16157-16163; Biochemistry (1989) 28:661-666, cited above and incorporated herein by reference;

ADP-induced human platelet aggregation, sequence (P08514 32-1039): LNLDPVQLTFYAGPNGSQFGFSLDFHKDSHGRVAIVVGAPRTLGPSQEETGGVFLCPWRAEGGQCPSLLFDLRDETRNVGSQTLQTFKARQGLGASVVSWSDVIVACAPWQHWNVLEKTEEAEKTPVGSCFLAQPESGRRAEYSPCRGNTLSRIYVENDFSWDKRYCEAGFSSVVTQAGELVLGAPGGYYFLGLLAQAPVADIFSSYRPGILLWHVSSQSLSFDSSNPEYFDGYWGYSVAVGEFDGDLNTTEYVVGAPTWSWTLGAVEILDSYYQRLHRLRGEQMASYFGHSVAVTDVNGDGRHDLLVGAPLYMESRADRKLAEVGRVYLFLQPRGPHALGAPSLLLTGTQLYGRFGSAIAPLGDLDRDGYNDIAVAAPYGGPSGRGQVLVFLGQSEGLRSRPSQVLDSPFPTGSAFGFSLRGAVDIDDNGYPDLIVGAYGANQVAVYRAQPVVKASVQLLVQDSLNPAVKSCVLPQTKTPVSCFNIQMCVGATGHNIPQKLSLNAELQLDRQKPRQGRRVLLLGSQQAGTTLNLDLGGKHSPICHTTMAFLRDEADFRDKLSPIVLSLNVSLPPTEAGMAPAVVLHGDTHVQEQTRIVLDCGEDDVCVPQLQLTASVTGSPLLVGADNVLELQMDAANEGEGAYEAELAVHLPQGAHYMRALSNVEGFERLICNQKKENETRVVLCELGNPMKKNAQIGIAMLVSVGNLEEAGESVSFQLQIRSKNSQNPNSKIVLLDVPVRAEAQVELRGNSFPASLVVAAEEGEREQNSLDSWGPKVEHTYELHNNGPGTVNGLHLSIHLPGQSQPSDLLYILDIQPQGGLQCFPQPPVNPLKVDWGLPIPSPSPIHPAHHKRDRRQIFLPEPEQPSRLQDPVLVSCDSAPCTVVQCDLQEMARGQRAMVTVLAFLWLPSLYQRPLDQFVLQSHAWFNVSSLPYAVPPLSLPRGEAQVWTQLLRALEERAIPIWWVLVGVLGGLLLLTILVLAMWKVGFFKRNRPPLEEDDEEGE
ADP-induced human platelet aggregation, sequence (P05106 27-788): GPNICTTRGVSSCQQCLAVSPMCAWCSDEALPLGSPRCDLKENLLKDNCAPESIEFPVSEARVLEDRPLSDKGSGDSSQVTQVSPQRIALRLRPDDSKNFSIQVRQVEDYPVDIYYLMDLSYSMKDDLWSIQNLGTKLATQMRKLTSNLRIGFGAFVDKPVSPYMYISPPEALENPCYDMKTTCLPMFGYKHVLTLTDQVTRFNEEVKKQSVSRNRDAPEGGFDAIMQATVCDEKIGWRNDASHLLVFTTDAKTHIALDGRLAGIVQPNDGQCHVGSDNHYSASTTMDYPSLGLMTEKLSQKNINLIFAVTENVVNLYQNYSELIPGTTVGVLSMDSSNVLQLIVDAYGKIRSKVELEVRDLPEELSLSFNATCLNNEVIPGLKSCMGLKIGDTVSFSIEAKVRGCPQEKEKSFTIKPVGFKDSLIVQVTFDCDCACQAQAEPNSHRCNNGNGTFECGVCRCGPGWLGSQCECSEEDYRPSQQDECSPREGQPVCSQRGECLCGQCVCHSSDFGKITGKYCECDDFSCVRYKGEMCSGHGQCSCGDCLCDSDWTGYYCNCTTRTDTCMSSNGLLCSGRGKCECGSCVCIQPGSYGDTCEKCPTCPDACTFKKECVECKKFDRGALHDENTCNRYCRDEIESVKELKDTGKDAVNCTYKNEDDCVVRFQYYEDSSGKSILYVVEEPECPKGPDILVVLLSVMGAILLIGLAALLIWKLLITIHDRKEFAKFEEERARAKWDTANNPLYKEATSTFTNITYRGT

Row | SMILES | IC50
1 | CC1(C)SSCCC(=O)N[C@@H](CCCCN)C(=O)NCC(=O)N[C@@H](CC(=O)O)C(=O)N[C@@H]1C(N)=O [Analog #9, Mpr-K-G-D-Pen-NH2] ([Mpa]KGD[Pen]-NH2; disulfide 1-5) | 25 µM
2 | CC(=O)N[C@H]1CSSC(C)(C)[C@@H](C(N)=O)NC(=O)[C@H](CC(=O)O)NC(=O)CNC(=O)[C@H](CCCNC(=N)N)NC1=O [Analog #11, Acetyl-C-R-G-D-Pen-NH2] (Ac-CRGD[Pen]-NH2; disulfide 1-5) | 5 µM
3 | NCCC[C@@H]1NC(=O)[C@@H](N)CSSC[C@@H](C(N)=O)NC(=O)[C@@H]2CCCN2C(=O)[C@H](Cc2c[nH]c3ccccc23)NC(=O)[C@H](CC(=O)O)NC(=O)CNC1=O [Analog #36, C-Orn-G-D-W-P-C-NH2] (H-C[Orn]GDWPC-NH2; disulfide 1-7) | 150 to 200 µM
4 | C[C@H]1NC(=O)[C@H](CCCCN)NC(=O)[C@@H](N)CSSC[C@@H](C(N)=O)NC(=O)[C@@H]2CCCN2C(=O)[C@H](Cc2c[nH]c3ccccc23)NC(=O)[C@H](CC(=O)O)NC1=O [Analog #38, C-K-A.dagger.-D-W-P-C-NH2] (H-CK[dA]DWPC-NH2; disulfide 1-7) | > 200 µM
5 | CN1CC(=O)N[C@H](C(N)=O)CSSC[C@H](N)C(=O)N[C@@H](CCCCN)C(=O)NCC(=O)N[C@@H](CC(=O)O)C(=O)N[C@@H](Cc2c[nH]c3ccccc23)C1=O [Analog #39, C-K-G-D-W-(Sar)-C-NH2] (H-CKGDW[Sar]C-NH2; disulfide 1-7) | 5 µM
6 | NC(=O)[C@@H]1CSSC[C@H](N)C(=O)N[C@@H](CCCCNC=O)C(=O)NCC(=O)N[C@@H](CC(=O)O)C(=O)N[C@@H](Cc2c[nH]c3ccccc23)C(=O)N2CCC[C@H]2C(=O)N1 [Analog #40, C-K(Formyl)-G-D-W-P-C-NH2] (H-CK(For)GDWPC-NH2; disulfide 1-7) | > 200 µM
7 | CN1CC(=O)N[C@@H](CC(=O)O)C(=O)N[C@@H](Cc2c[nH]c3ccccc23)C(=O)N2CCC[C@H]2C(=O)N[C@H](C(N)=O)CSSC[C@H](N)C(=O)N[C@@H](CCCCN)C1=O [Analog #43, C-K-(Sar)-D-W-P-C-NH2] (H-CK[Sar]DWPC-NH2; disulfide 1-7) | 50 µM
8 | NCCCC[C@@H]1NC(=O)[C@@H](N)CSSC[C@@H](C(N)=O)NC(=O)[C@@H]2CCCN2C(=O)[C@H](Cc2ccc([N+](=O)[O-])cc2)NC(=O)[C@H](CC(=O)O)NC(=O)CNC1=O [Analog #44, C-K-G-D-(4-NO2 -Phe)-P-C-NH2] (H-CKGD[Phe(4-NO2)]PC-NH2; disulfide 1-7) | 75 µM
9 | CN1C(=O)[C@H](CC(=O)O)NC(=O)CNC(=O)[C@H](CCCCN)NC(=O)[C@@H](N)CSSC[C@@H](C(N)=O)NC(=O)[C@@H]2CCCN2C(=O)[C@@H]1Cc1ccccc1 [Analog #45, C-K-G-D-(NMePhe)-P-C-NH2] (H-CKGD[NMeF]PC-NH2; disulfide 1-7) | > 200 µM
10 | CC1(C)SSCCC(=O)N[C@@H](CCCCN)C(=O)NCC(=O)N[C@@H](CC(=O)O)C(=O)N[C@H](Cc2c[nH]c3ccccc23)C(=O)N2CCC[C@H]2C(=O)N[C@@H]1C(N)=O [Analog #50, Mpr-K-G-D-W.dagger.-P-Pen-NH2] ([Mpa]KGD[dW]P[Pen]-NH2; disulfide 1-7) | > 200 µM
11 | CC1(C)SSCCC(=O)N[C@@H](CCCCN)C(=O)NCC(=O)N[C@@H](CC(=O)O)C(=O)N[C@@H](Cc2c[nH]c3ccccc23)C(=O)N2CCC[C@H]2C(=O)N[C@@H]1C(N)=O [Analog #51, Mpr-K-G-D-W-P-Pen-NH2] ([Mpa]KGDWP[Pen]-NH2; disulfide 1-7) | 0.75 µM
12 | CC1(C)SSCCC(=O)N[C@@H](CCCCN)C(=O)NCC(=O)N[C@@H](CC(=O)O)C(=O)N[C@@H](Cc2c[nH]c3ccccc23)C(=O)N2CCC[C@H]2C(=O)N[C@H]1C(N)=O [Analog #52, Mpr-K-G-D-W-P-Pen.dagger.-NH2] ([Mpa]KGDWP[dPen]-NH2; disulfide 1-7) | 5 µM
13 | CC1(C)SSCCC(=O)N[C@@H](CCCCN)C(=O)NCC(=O)N[C@@H](CC(=O)O)C(=O)N[C@@H](Cc2c[nH]c3ccccc23)C(=O)N2CCC[C@@H]2C(=O)N[C@@H]1C(N)=O [Analog #53, Mpr-K-G-D-W-P.dagger.-Pen-NH2] ([Mpa]KGDW[dP][Pen]-NH2; disulfide 1-7) | > 200 µM
14 | CC1(C)SSCCC(=O)N[C@@H](CCCCN)C(=O)NCC(=O)N[C@H](CC(=O)O)C(=O)N[C@@H](Cc2c[nH]c3ccccc23)C(=O)N2CCC[C@H]2C(=O)N[C@@H]1C(N)=O [Analog #54, Mpr-K-G-D.dagger.-W-P-Pen-NH2] ([Mpa]KG[dD]WP[Pen]-NH2; disulfide 1-7) | > 100 µM
15 | NCCCC[C@@H]1NC(=O)CCSSC[C@@H](C(N)=O)NC(=O)[C@@H]2CSCN2C(=O)[C@H](Cc2c[nH]c3ccccc23)NC(=O)[C@H](CC(=O)O)NC(=O)CNC1=O [Analog #55, Mpr-K-G-D-W-(Thz)-C-NH2] ([Mpa]KGDW[Thz]C-NH2; disulfide 1-7) | 2 µM
16 | CC1(C)SSCCC(=O)N[C@@H](CCCCN)C(=O)NCC(=O)N[C@@H](CC(=O)O)C(=O)N[C@@H](Cc2c[nH]c3ccccc23)C(=O)N2CCCC[C@H]2C(=O)N[C@@H]1C(N)=O [Analog #59, Mpr-K-G-D-W-(Pip)-Pen-NH2] ([Mpa]KGDW[Pip][Pen]-NH2; disulfide 1-7) | 1 µM
17 | NCCCC[C@@H]1NC(=O)CCSSC[C@H](C(N)=O)NC(=O)[C@@H]2CCCN2C(=O)[C@H](Cc2c[nH]c3ccccc23)NC(=O)[C@H](CC(=O)O)NC(=O)CNC1=O [Analog #61, Mpr-K-G-D-W-P-C.dagger.-NH2] ([Mpa]KGDWP[dC]-NH2; disulfide 1-7) | 15 µM
18 | CC1(C)SSCCC(=O)N[C@H](CCCCN)C(=O)NCC(=O)N[C@@H](CC(=O)O)C(=O)N[C@@H](Cc2c[nH]c3ccccc23)C(=O)N2CCC[C@H]2C(=O)N[C@@H]1C(N)=O [Analog #62, Mpr-K.dagger.-G-D-W-P-Pen-NH2] ([Mpa][dK]GDWP[Pen]-NH2; disulfide 1-7) | 2.5 µM
19 | CC1(C)SSCCC(=O)N[C@@H](CCCCNC(=N)N)C(=O)NCC(=O)N[C@@H](CC(=O)O)C(=O)N[C@@H](Cc2c[nH]c3ccccc23)C(=O)N2CCC[C@H]2C(=O)N[C@@H]1C(N)=O [Analog #63, Mpr-(Har)-G-D-W-P-Pen-NH2] ([Mpa][hArg]GDWP[Pen]-NH2; disulfide 1-7) | 0.1 µM
20 | CC(=N)NCCCC[C@@H]1NC(=O)CCSSC[C@@H](C(N)=O)NC(=O)[C@@H]2CCCN2C(=O)[C@H](Cc2c[nH]c3ccccc23)NC(=O)[C@H](CC(=O)O)NC(=O)CNC1=O [Analog #64, Mpr-(Acetimidyl-Lys)-G-D-W-P-C-NH2] ([Mpa][X2]GDWPC-NH2; disulfide 1-7) | 0.25 µM
21 | CC(=N)NCCCC[C@@H]1NC(=O)CCSSC(C)(C)[C@@H](C(N)=O)NC(=O)[C@@H]2CCCN2C(=O)[C@H](Cc2c[nH]c3ccccc23)NC(=O)[C@H](CC(=O)O)NC(=O)CNC1=O [Analog #69, Mpr-(Acetimidyl-Lys)-G-D-W-P-Pen-NH2] ([Mpa][X2]GDWP[Pen]-NH2; disulfide 1-7) | 0.5 µM
22 | N=C(NCCCC[C@@H]1NC(=O)CCSSC[C@@H](C(N)=O)NC(=O)[C@@H]2CCCN2C(=O)[C@H](Cc2c[nH]c3ccccc23)NC(=O)[C@H](CC(=O)O)NC(=O)CNC1=O)c1ccccc1 [Analog #70, Mpr-(Phenylimidyl-Lys)-G-D-W-P-C-NH2] ([Mpa][X1]GDWPC-NH2; disulfide 1-7) | 0.5 µM
23 | CN1CC(=O)N[C@@H](CC(=O)O)C(=O)N[C@@H](Cc2c[nH]c3ccccc23)C(=O)N2CCC[C@H]2C(=O)N[C@H](C(N)=O)C(C)(C)SSCCC(=O)N[C@@H](CCCCNC(=N)N)C1=O [Analog #71, Mpr-Har-Sar-D-W-P-Pen-NH2] ([Mpa][hArg][Sar]DWP[Pen]-NH2; disulfide 1-7) | 2.5 µM
24 | CC1(C)SSCCC(=O)N[C@@H](CCCCNC(=N)c2ccccc2)C(=O)NCC(=O)N[C@@H](CC(=O)O)C(=O)N[C@@H](Cc2c[nH]c3ccccc23)C(=O)N2CCC[C@H]2C(=O)N[C@@H]1C(N)=O [Analog #72, Mpr-(Phenylimidyl-Lys)-G-D-W-P-Pen-NH2] ([Mpa][X1]GDWP[Pen]-NH2; disulfide 1-7) | 0.5 µM

Same assay, conditions: PAI activity, Example 15; read-out: Appr.IC20

Row | SMILES | IC20
25 | N=C(N)NCCCC[C@@H]1NC(=O)[C@@H]2CCCN2C(=O)CCSSC[C@@H](C(N)=O)NC(=O)[C@@H]2CCCN2C(=O)[C@H](Cc2c[nH]c3ccccc23)NC(=O)[C@H](CC(=O)O)NC(=O)CNC1=O [PAI 80, Mpr-P-Har-G-D-W-P-C-NH2] ([Mpa]P[hArg]GDWPC-NH2; disulfide 1-8) | 1290 nM
26 | N=C(N)NCCCC[C@@H]1NC(=O)CNC(=O)CCSSC[C@@H](C(N)=O)NC(=O)[C@@H]2CCCN2C(=O)[C@H](Cc2c[nH]c3ccccc23)NC(=O)[C@H](CC(=O)O)NC(=O)CNC1=O [PAI 81, Mpr-G-Har-G-D-W-P-C-NH2] ([Mpa]G[hArg]GDWPC-NH2; disulfide 1-8) | 7470 nM
27 | CC1(C)NC(=O)CCSSC[C@@H](C(N)=O)NC(=O)[C@@H]2CCCN2C(=O)[C@H](Cc2c[nH]c3ccccc23)NC(=O)[C@H](CC(=O)O)NC(=O)CNC(=O)[C@H](CCCCNC(=N)N)NC1=O [PAI 83, Mpr-Aib-Har-G-D-W-P-C-NH2] ([Mpa][Aib][hArg]GDWPC-NH2; disulfide 1-8) | 2200 nM
28 | CN1C(=O)CCSSC[C@@H](C(N)=O)NC(=O)[C@@H]2CCCN2C(=O)[C@H](Cc2c[nH]c3ccccc23)NC(=O)[C@H](CC(=O)O)NC(=O)CNC(=O)[C@H](CCCCNC(=N)N)NC(=O)[C@@H]1CCCNC(=N)N [PAI 84, Mpr-(N-Me-Arg)-Har-G-D-W-P-C-NH2] ([Mpa][NMeR][hArg]GDWPC-NH2; disulfide 1-8) | 250 nM
29 | C[C@H]1NC(=O)CCSSC[C@@H](C(N)=O)NC(=O)[C@@H]2CCCN2C(=O)[C@H](Cc2c[nH]c3ccccc23)NC(=O)[C@H](CC(=O)O)NC(=O)CNC(=O)[C@H](CCCCNC(=N)N)NC1=O [PAI 86, Mpr-A.dagger.-Har-G-D-W-P-C-NH2] ([Mpa][dA][hArg]GDWPC-NH2; disulfide 1-8) | 1150 nM
30 | N=C(N)NCCCC[C@@H]1NC(=O)CCNC(=O)CCSSC[C@@H](C(N)=O)NC(=O)[C@@H]2CCCN2C(=O)[C@H](Cc2c[nH]c3ccccc23)NC(=O)[C@H](CC(=O)O)NC(=O)CNC1=O [PAI 87, Mpr-(β-Ala)-Har-G-D-W-P-C-NH2] ([Mpa][βAla][hArg]GDWPC-NH2; disulfide 1-8) | 920 nM
